These results are taken from patent publication US10028952B2, “Methods of treating diabetes or obesity using bile acids, bile salts, and mimics thereof” (SATIOGEN PHARMACEUTICALS, INC., priority 2008, dated 2018).

Where two headings read alike, the source gives them in different places.

Test [1] relates to overnight-fasted Sprague Dawley rats. The conditions noted are these: 500 mM sodium taurocholate, 3 mL rectal gel, 1% methyl cellulose, over 6 hours. As to the method:
Using a stainless steel dissolving vessel fitted with a propeller stirrer 1 gram of methyl cellulose is dissolved in 100 mL of purified water and stirred for 15 minutes. 5 syringes connected to gavage tubes are then each filled with 3 mL of the composition.
The sodium taurocholate rectal gel described above was rectally administered to 6 conscious overnight-fasted subjects (e.g., Sprague Dawley rats) and the control rectal gel without the sodium taurocholate was rectally administered to 5 conscious overnight-fasted subjects (e.g., Sprague Dawley rats). Each rat was then exposed to pre-weighed food and the cumulative consumption of the food was determined over a 6 hour period by weighing the food after 30 minutes, 60 minutes, 120 minutes, 240 minutes and 360 minutes.

For test [2] the test system is unchanged. As to the method: Using a stainless steel dissolving vessel fitted with a propeller stirrer 1 gram of methyl cellulose is dissolved in 100 mL of purified water and stirred for 15 minutes. 12 syringes connected to gavage tubes are then each filled with 3 mL of the composition.
A 4×4 Latin Square design is used to monitor the effect of the different concentration of taurocholate on the food uptake of overnight-fasted Sprague Dawley rats. Each concentration is tested in triplicate with four rats used per replicate.
The ED50 for inhibition of food intake is obtained by plotting the normalizing the dose response for the anorectic effect of taurocholate to the control data as a log of taurocholate dose vs the percentage of control cumulative intake (FIG. 7).

The test system of test [3] is obese human diabetics. As to conditions: rectal, 0.66-20.0 mmoles in 20 ml 1% carboxymethyl cellulose gel, after 100 mg sitagliptin. As to the method: Studies were undertaken after an overnight fast following administration (8-10 hours prior to bile salt) of 100 mg sitagliptin, a DPP-4 inhibitor that protects GLP-1 from inactivation by proteolysis. […] The taurocholic acid was administered into the rectum by syringe in a total volume of 20 ml of 1% carboxymethyl cellulose gel. Each dose was administered on a different day with at least three days between doses.

The target in test [4] is T1, TGR5 (Homo sapiens, UniProt Q8TDU6).
T1 construct: expressed in transfected cells; host or cells: CHO cells
T1 sequence (Q8TDU6 1-330): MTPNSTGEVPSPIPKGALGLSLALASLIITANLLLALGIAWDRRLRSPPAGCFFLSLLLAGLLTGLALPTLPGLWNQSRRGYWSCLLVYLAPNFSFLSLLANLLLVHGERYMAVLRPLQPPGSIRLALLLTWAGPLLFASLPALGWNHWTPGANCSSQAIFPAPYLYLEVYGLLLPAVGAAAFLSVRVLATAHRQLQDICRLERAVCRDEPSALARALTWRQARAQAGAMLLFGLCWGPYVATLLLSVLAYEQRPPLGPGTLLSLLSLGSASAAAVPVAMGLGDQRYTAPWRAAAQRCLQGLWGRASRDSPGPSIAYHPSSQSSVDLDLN
The conditions noted are these: TGR5-transfected CHO cells; more potent than the named bile acid; cited from earlier work.

[5] abbreviates: 50, 150, 500 mM rectal gels, 3 mL.

`C[C@H](CCC(=O)NCCS(=O)(=O)O)[C@H]1CC[C@H]2[C@@H]3[C@H](O)C[C@@H]4C[C@H](O)CC[C@]4(C)[C@H]3C[C@H](O)[C@]12C` [taurocholate, taurocholic acid]: in test [1], the “cumulative food intake compared to rats instilled with gel alone” value is “reduced”. The “cumulative food intake, relation to quantity administered” value in test [2] (setting [5]) was “dose dependently related”. Moreover, the “time for which differences in food uptake are maintained” value in test [2] (setting [5]) is “at least 24 hours”. The “ED50 for inhibition of food intake” value in test [2] (24 hour intake, rectal gel) was 7.2 mmol/rat; in test [2] (at 1 hour, 3 mL doses, rectal gel), 528 mM; in test [2] (at 1 hour, rectal gel), 1.6 mmol/rat. In addition, in test [2] (rectal gel), the “dose dependency for inhibition of intake between 8 and 24 hours” value is on record as “not different”. For the same compound, the “circulating GLP-1 levels” value in test [3] is listed as “increase”. In addition, the “circulating PYY levels” value in test [3] is “increase”.

As to `C[C@H](CCC(=O)O)[C@H]1CC[C@H]2[C@@H]3[C@H](O)C[C@@H]4C[C@H](O)CC[C@]4(C)[C@H]3C[C@H](O)[C@]12C` [CA, cholic acid], in test [4], the “rank of potency (TGR5 agonist potency)” value is “> hyodeoxycholic acid (HDCA”.
